# Results published in PubChem BioAssay (NCI).
#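 Compound exposure: 48 hours, 5 concentrations, 96-well plates. Abbreviation: GI50, concentration required for 50% inhibition of growth. TGI: total growth inhibition.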 Where a SMILES comes first, the peptide text is derived from it. [ ]: non-standard residue; d: D form. The star is where a group is joined. Nle = CCCC[C@H](N)C(=O)O; Cbz = O=C(OCc1ccccc1)*
# How the values were obtained:
# Assay in all cases: NCI tumour cell line growth inhibition, 48 h
# [1] = tested on: NCI-H460 lung
# [2] = tested on: K-562 leukemia
# [3] = tested on: NCI-H23 lung
# [4] = tested on: EKVX NSCLC
# [5] = tested on: SK-MEL-2 melanoma
# [6] = tested on: SF-295 CNS
# [7] = tested on: NCI-H226 lung
# [8] = tested on: UACC-257 melanoma
# [9] = tested on: IGROV1 ovarian
# [10] = tested on: U251 CNS
# [11] = tested on: DU-145 prostate
# [12] = tested on: HS 578T breast
# [13] = tested on: COLO 205 colon
# [14] = tested on: CCRF-CEM leukemia
# [15] = tested on: SW-620 colon
# [16] = tested on: MDA-MB-435
# [17] = tested on: SF-539 CNS
# [18] = tested on: UACC-62 melanoma
# [19] = tested on: UO-31 renal
# [20] = tested on: HOP-92 NSCLC
# [21] = tested on: SK-MEL-5 melanoma
# [22] = tested on: HCT-15 colon
# [23] = tested on: A498 renal
# [24] = tested on: NCI/ADR-RES ovarian
# [25] = tested on: PC-3 prostate
# [26] = tested on: SF-268 CNS
# [27] = tested on: NCI-H522 lung
# [28] = tested on: BT-549 breast
# [29] = tested on: OVCAR-4 ovarian
# [30] = tested on: RXF 393 renal
# [31] = tested on: HCT-116 colon
# [32] = tested on: HL-60(TB) leukemia
# [33] = tested on: HT29 colon
# [34] = tested on: KM12 colon
# [35] = tested on: HOP-62 NSCLC
# [36] = tested on: MCF7 breast
# [37] = tested on: CAKI-1 renal
# [38] = tested on: SR leukemia
# [39] = tested on: T-47D breast
# [40] = tested on: OVCAR-3 ovarian
# [41] = tested on: SK-OV-3 ovarian
# [42] = tested on: A549 NSCLC
# [43] = tested on: RPMI-8226 leukemia
# [44] = tested on: M14 melanoma
# [45] = tested on: MOLT-4 leukemia
# [46] = tested on: SK-MEL-28 melanoma
# [47] = tested on: ACHN renal
# [48] = tested on: LOX IMVI melanoma
# [49] = tested on: OVCAR-5 ovarian
# [50] = tested on: MDA-MB-231 breast
# [51] = tested on: SNB-19 CNS
# [52] = tested on: OVCAR-8 ovarian
# [53] = tested on: HCC-2998 colon
# [54] = tested on: 786-0 renal
# [55] = tested on: MALME-3M melanoma
# [56] = tested on: TK-10 renal
compound,measurement,setting,value
CCCC[C@@H](C=O)NC(=O)[C@H](CC(C)C)NC(=O)[C@H](CC(C)C)NC(=O)OCc1ccccc1 (Cbz-Leu-Leu-[Nle]-aldehyde),GI50,[1],1570 nM
same,TGI,[1],6280 nM
same,GI50,[2],988 nM
same,TGI,[2],> 100000 nM
same,GI50,[3],380 nM
same,TGI,[3],1770 nM
same,GI50,[4],1060 nM
same,TGI,[4],> 59000 nM
same,GI50,[5],791 nM
same,TGI,[5],2840 nM
same,GI50,[6],486 nM
same,TGI,[6],5710 nM
same,GI50,[7],175 nM
same,TGI,[7],343 nM
same,GI50,[8],395 nM
same,TGI,[8],1960 nM
same,GI50,[9],308 nM
same,TGI,[9],4390 nM
same,GI50,[10],570 nM
same,TGI,[10],2120 nM
same,GI50,[11],617 nM
same,TGI,[11],2460 nM
same,GI50,[12],308 nM
same,TGI,[12],4180 nM
same,GI50,[13],979 nM
same,TGI,[13],6200 nM
same,GI50,[14],440 nM
same,TGI,[14],> 100000 nM
same,GI50,[15],298 nM
same,TGI,[15],2500 nM
same,GI50,[16],212 nM
same,TGI,[16],469 nM
same,GI50,[17],268 nM
same,TGI,[17],2530 nM
same,GI50,[18],403 nM
same,TGI,[18],1510 nM
same,GI50,[19],398 nM
same,TGI,[19],1670 nM
same,GI50,[20],2090 nM
same,TGI,[20],6220 nM
same,GI50,[21],432 nM
same,TGI,[21],1880 nM
same,GI50,[22],1270 nM
same,TGI,[22],4940 nM
same,GI50,[23],305 nM
same,TGI,[23],964 nM
same,GI50,[24],3960 nM
same,TGI,[24],> 32600 nM
same,GI50,[25],2370 nM
same,TGI,[25],> 21100 nM
same,GI50,[26],406 nM
same,TGI,[26],4170 nM
same,GI50,[27],662 nM
same,TGI,[27],5820 nM
same,GI50,[28],409 nM
same,TGI,[28],2590 nM
same,GI50,[29],1070 nM
same,TGI,[29],> 81000 nM
same,GI50,[30],144 nM
same,TGI,[30],316 nM
same,GI50,[31],173 nM
same,TGI,[31],349 nM
same,GI50,[32],1010 nM
same,TGI,[32],> 100000 nM
same,GI50,[33],349 nM
same,TGI,[33],> 34000 nM
same,GI50,[34],504 nM
same,GI50,[35],415 nM
same,TGI,[35],1550 nM
same,GI50,[36],546 nM
same,TGI,[36],20700 nM
same,GI50,[37],441 nM
same,TGI,[37],2150 nM
same,GI50,[38],279 nM
same,TGI,[38],1360 nM
same,GI50,[39],688 nM
same,GI50,[40],361 nM
same,TGI,[40],4660 nM
same,GI50,[41],1310 nM
same,TGI,[41],> 71500 nM
same,GI50,[42],663 nM
same,TGI,[42],12200 nM
same,GI50,[43],359 nM
same,GI50,[44],244 nM
same,TGI,[44],603 nM
same,GI50,[45],517 nM
same,TGI,[45],> 100000 nM
same,GI50,[46],430 nM
same,TGI,[46],1610 nM
same,GI50,[47],366 nM
same,TGI,[47],2430 nM
same,GI50,[48],226 nM
same,TGI,[48],537 nM
same,GI50,[49],930 nM
same,TGI,[49],2840 nM
same,GI50,[50],444 nM
same,TGI,[50],1910 nM
same,GI50,[51],5370 nM
same,TGI,[51],> 21200 nM
same,GI50,[52],1410 nM
same,TGI,[52],> 37500 nM
same,GI50,[53],593 nM
same,TGI,[53],1960 nM
same,GI50,[54],243 nM
same,TGI,[54],1410 nM
same,GI50,[55],570 nM
same,TGI,[55],4870 nM
same,GI50,[56],332 nM
